Tested on: PDC KRAS tumor spheroids with HUVEC/MSC, viability
Assay: Anticancer human tumor 349418-098-R-PDC patient-derived lung adenocarcinoma cell line growth inhibition [KRAS2]
Details: for IC50: curve of first compound; for viability, T/C: stronger effect = lower value
How it was run: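 Combination screen of spheroid viability in tumor-cell co-cultures with endothelial (HUVEC) and mesenchymal stem cell stroma. Each agent was tested in half-log dilutions, topping at clinical Cmax or at 10 microM without a known Cmax.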

[1] = second compound 0.0316 µM, first compound 0.01 µM
[2] = second compound 0.0316 µM, first compound 0.0316 µM
[3] = second compound 0.0316 µM, first compound 0.1 µM
[4] = second compound 0.0316 µM, first compound 0.316 µM
[5] = second compound 0.0316 µM, first compound 1 µM
[6] = second compound 0.0316 µM, first compound 3.16 µM
[7] = second compound 0.1 µM, first compound 0.01 µM
[8] = second compound 0.1 µM, first compound 0.0316 µM
[9] = second compound 0.1 µM, first compound 0.1 µM
[10] = second compound 0.1 µM, first compound 0.316 µM
[11] = second compound 0.1 µM, first compound 1 µM
[12] = second compound 0.1 µM, first compound 3.16 µM
[13] = second compound 0.316 µM, first compound 0.01 µM
[14] = second compound 0.316 µM, first compound 0.0316 µM
[15] = second compound 0.316 µM, first compound 0.1 µM
[16] = second compound 0.316 µM, first compound 0.316 µM
[17] = second compound 0.316 µM, first compound 1 µM
[18] = second compound 0.316 µM, first compound 3.16 µM
[19] = second compound 1 µM, first compound 0.01 µM
[20] = second compound 1 µM, first compound 0.0316 µM
[21] = second compound 1 µM, first compound 0.1 µM
[22] = second compound 1 µM, first compound 0.316 µM
[23] = second compound 1 µM, first compound 1 µM
[24] = second compound 1 µM, first compound 3.16 µM
[25] = second compound 3.16 µM, first compound 0.01 µM
[26] = second compound 3.16 µM, first compound 0.0316 µM
[27] = second compound 3.16 µM, first compound 0.1 µM
[28] = second compound 3.16 µM, first compound 0.316 µM
[29] = second compound 3.16 µM, first compound 1 µM
[30] = second compound 3.16 µM, first compound 3.16 µM
[31] = second compound 0.0316 µM, first compound 10 µM
[32] = second compound 0.1 µM, first compound 10 µM
[33] = second compound 0.316 µM, first compound 10 µM
[34] = second compound 1 µM, first compound 10 µM
[35] = second compound 3.16 µM, first compound 10 µM
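Further: spheroids exposed to compounds for seven days before readout.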

Structure (SMILES)	IC50 (second compound 0.0316 µM) [nM]	IC50 (second compound 0.1 µM) [nM]	IC50 (second compound 0.316 µM) [nM]	IC50 (second compound 1 µM) [nM]	IC50 (second compound 3.16 µM) [nM]	viability, T/C [2] [%]	viability, T/C [3] [%]	viability, T/C [4] [%]	viability, T/C [5] [%]	viability, T/C [6] [%]	viability, T/C [8] [%]	viability, T/C [9] [%]	viability, T/C [10] [%]	viability, T/C [11] [%]	viability, T/C [14] [%]	viability, T/C [15] [%]	viability, T/C [20] [%]	viability, T/C [21] [%]	viability, T/C [26] [%]	viability, T/C [27] [%]	further results
CC(=O)OC12COC1CC(O)C1(C)C(=O)C(O)C3=C(C)C(OC(=O)C(O)C(NC(=O)OC(C)(C)C)c4ccccc4)CC(O)(C(OC(=O)c4ccccc4)C21)C3(C)C (stereo not given) + C=CC(=O)N1CCN(c2nc(OCC3CCCN3C)nc3c2CCN(c2cccc4cccc(C)c24)C3)CC1CC#N	< 10	< 10	< 10	< 10	< 10	20	16.5	17.8	24.9	23.5	12	15.2	17.2	21.1	14.2	12.8	12.5	12.2	14.4	19.9	viability, T/C [1]: 12%; viability, T/C [7]: 13.5%; viability, T/C [12]: 18%; viability, T/C [13]: 10.8%; viability, T/C [16]: 14.6%; viability, T/C [17]: 18.3%; viability, T/C [18]: 18%; viability, T/C [19]: 9.34%; viability, T/C [22]: 11.6%; viability, T/C [23]: 14.8%; viability, T/C [24]: 17.5%; viability, T/C [25]: 12.8%; viability, T/C [28]: 20%; viability, T/C [29]: 19.5%; viability, T/C [30]: 24.3%
CN(C)C/C=C/C(=O)Nc1cc2c(Nc3ccc(F)c(Cl)c3)ncnc2cc1O[C@H]1CCOC1 + C=CC(=O)N1CCN(c2nc(OCC3CCCN3C)nc3c2CCN(c2cccc4cccc(C)c24)C3)CC1CC#N	> 100	> 100	> 100	> 100	< 0.316	102	87.2				83.8	83.9			82.1	84.4	77.4	58.3	1.41	0.2	viability, T/C (second compound 0.0316 µM, first compound 0.000316 µM): 102%; viability, T/C (second compound 0.0316 µM, first compound 0.001 µM): 101%; viability, T/C (second compound 0.0316 µM, first compound 0.00316 µM): 85%; viability, T/C [1]: 105%; viability, T/C (second compound 0.1 µM, first compound 0.000316 µM): 101%; viability, T/C (second compound 0.1 µM, first compound 0.001 µM): 109%; viability, T/C (second compound 0.1 µM, first compound 0.00316 µM): 86.3%; viability, T/C [7]: 92.9%; viability, T/C (second compound 0.316 µM, first compound 0.000316 µM): 99.9%; viability, T/C (second compound 0.316 µM, first compound 0.001 µM): 99.8%; viability, T/C (second compound 0.316 µM, first compound 0.00316 µM): 94.6%; viability, T/C [13]: 94.9%; viability, T/C (second compound 1 µM, first compound 0.000316 µM): 84.5%; viability, T/C (second compound 1 µM, first compound 0.001 µM): 75.2%; viability, T/C (second compound 1 µM, first compound 0.00316 µM): 65.9%; viability, T/C [19]: 69.4%; viability, T/C (second compound 3.16 µM, first compound 0.000316 µM): 0.17%; viability, T/C (second compound 3.16 µM, first compound 0.001 µM): 0.19%; viability, T/C (second compound 3.16 µM, first compound 0.00316 µM): 0.17%; viability, T/C [25]: 0.17%
COC(=O)c1ccc2c(C(=Nc3ccc(N(C)C(=O)CN4CCN(C)CC4)cc3)c3ccccc3)c(O)[nH]c2c1 + C=CC(=O)N1CCN(c2nc(OCC3CCCN3C)nc3c2CCN(c2cccc4cccc(C)c24)C3)CC1CC#N	456	320	154	< 31.6	< 31.6	65.9	78.3	58.5	28.9	15.6	88.9	87.6	46.3	25.4	75.2	51	44.8	24.2	0.1	0.08	viability, T/C [31]: 15%; viability, T/C [12]: 9.49%; viability, T/C [32]: 9.82%; viability, T/C [16]: 42.3%; viability, T/C [17]: 30.4%; viability, T/C [18]: 10.6%; viability, T/C [33]: 6.76%; viability, T/C [22]: 27.8%; viability, T/C [23]: 23.8%; viability, T/C [24]: 0.91%; viability, T/C [34]: 0.96%; viability, T/C [28]: 0.07%; viability, T/C [29]: 0.05%; viability, T/C [30]: 0.03%; viability, T/C [35]: 0.05%
O=C(c1cc(Cc2n[nH]c(=O)c3ccccc23)ccc1F)N1CCN(C(=O)C2CC2)CC1 + C=CC(=O)N1CCN(c2nc(OCC3CCCN3C)nc3c2CCN(c2cccc4cccc(C)c24)C3)CC1CC#N	189	168	1190	353	< 31.6	86.9	75.7	29.1	21.3	17.5	81.2	50.7	50.7	24.5	91.6	88	51.9	55.5	0.11	0.12	viability, T/C [31]: 15.6%; viability, T/C [12]: 20.9%; viability, T/C [32]: 17.5%; viability, T/C [16]: 68.2%; viability, T/C [17]: 62.1%; viability, T/C [18]: 23.1%; viability, T/C [33]: 18.9%; viability, T/C [22]: 52.5%; viability, T/C [23]: 34.6%; viability, T/C [24]: 26.7%; viability, T/C [34]: 20.6%; viability, T/C [28]: 0.11%; viability, T/C [29]: 0.11%; viability, T/C [30]: 0.12%; viability, T/C [35]: 1.16%

Source: PubChem BioAssay AID1963866 (Molecular Pharmacology Branch, DTP, NCI, 2024)
